From the NIST ThermoML archive (doi:10.1016/j.tca.2013.03.025)

Assay: xn = mol fraction of the nth substance listed
Settings: 101 kPa, Liquid; for viscosity: Concentric cylinders viscometry; for mass density: Vibrating tube method

CCCCOC(=O)C(C)O (stereo not given) [butyl 2-hydroxypropanoate] + CC(O)CO
Settings	mass density [kg/m3]	viscosity [mPa·s]
288.15 K, x1 = 0.0999	1028.94	49.57
288.15 K, x1 = 0.2	1020.52	32.76
288.15 K, x1 = 0.3	1014.01	22.44
288.15 K, x1 = 0.3999	1008.69	16.49
288.15 K, x1 = 0.4998	1004.11	12.5
288.15 K, x1 = 0.6	999.883	9.662
288.15 K, x1 = 0.6996	996.116	7.754
288.15 K, x1 = 0.7999	992.836	6.357
288.15 K, x1 = 0.9	990.017	5.352
288.15 K, x1 = 1	987.269	4.628
293.15 K, x1 = 0.0999	1025.09	36.74
293.15 K, x1 = 0.2	1016.49	24.82
293.15 K, x1 = 0.3	1009.81	17.35
293.15 K, x1 = 0.3999	1004.36	12.96
293.15 K, x1 = 0.4998	999.672	9.963
293.15 K, x1 = 0.6	995.344	7.814
293.15 K, x1 = 0.6996	991.481	6.325
293.15 K, x1 = 0.7999	988.111	5.256
293.15 K, x1 = 0.9	985.199	4.454
293.15 K, x1 = 1	982.366	3.88
298.15 K, x1 = 0.0999	1021.19	27.81
298.15 K, x1 = 0.2	1012.41	19.18
298.15 K, x1 = 0.3	1005.65	13.58
298.15 K, x1 = 0.3999	1000	10.3
298.15 K, x1 = 0.4998	995.208	8.084
298.15 K, x1 = 0.6	990.768	6.393
298.15 K, x1 = 0.6996	986.821	5.252
298.15 K, x1 = 0.7999	983.363	4.394
298.15 K, x1 = 0.9	980.366	3.772
298.15 K, x1 = 1	977.448	3.307
303.15 K, x1 = 0.0999	1017.29	21.45
303.15 K, x1 = 0.2	1008.34	15.08
303.15 K, x1 = 0.3	1001.42	10.86
303.15 K, x1 = 0.3999	995.637	8.42
303.15 K, x1 = 0.4998	990.737	6.606
303.15 K, x1 = 0.6	986.189	5.339
303.15 K, x1 = 0.6996	982.143	4.426
303.15 K, x1 = 0.7999	978.595	3.741
303.15 K, x1 = 0.9	975.512	3.226
303.15 K, x1 = 1	972.515	2.86
308.15 K, x1 = 0.0999	1013.34	16.82
308.15 K, x1 = 0.2	1004.23	12.05
308.15 K, x1 = 0.3	997.153	8.886
308.15 K, x1 = 0.3999	991.238	6.935
308.15 K, x1 = 0.4998	986.236	5.542
308.15 K, x1 = 0.6	981.583	4.506
308.15 K, x1 = 0.6996	977.444	3.772
308.15 K, x1 = 0.7999	973.812	3.212
308.15 K, x1 = 0.9	970.644	2.796
308.15 K, x1 = 1	967.567	2.481
313.15 K, x1 = 0.0999	1009.36	13.4
313.15 K, x1 = 0.2	1000.07	9.766
313.15 K, x1 = 0.3	992.852	7.317
313.15 K, x1 = 0.3999	986.813	5.772
313.15 K, x1 = 0.4998	981.71	4.666
313.15 K, x1 = 0.6	976.954	3.848
313.15 K, x1 = 0.6996	972.719	3.25
313.15 K, x1 = 0.7999	969.003	2.791
313.15 K, x1 = 0.9	965.755	2.449
313.15 K, x1 = 1	962.603	2.181
318.15 K, x1 = 0.0999	1005.34	10.83
318.15 K, x1 = 0.2	995.893	8.021
318.15 K, x1 = 0.3	988.531	6.099
318.15 K, x1 = 0.3999	982.364	4.873
318.15 K, x1 = 0.4998	977.162	3.982
318.15 K, x1 = 0.6	972.304	3.319
318.15 K, x1 = 0.6996	967.975	2.828
318.15 K, x1 = 0.7999	964.179	2.449
318.15 K, x1 = 0.9	960.848	2.163
318.15 K, x1 = 1	957.624	1.935
323.15 K, x1 = 0.0999	1001.29	8.864
323.15 K, x1 = 0.2	991.678	6.665
323.15 K, x1 = 0.3	984.178	5.141
323.15 K, x1 = 0.3999	978.01	4.159
323.15 K, x1 = 0.4998	972.59	3.435
323.15 K, x1 = 0.6	967.647	2.889
323.15 K, x1 = 0.6996	963.208	2.483
323.15 K, x1 = 0.7999	959.336	2.166
323.15 K, x1 = 0.9	955.922	1.924
323.15 K, x1 = 1	952.631	1.728
